Test results published in US10947289B2, “Glyco-modified atrial natriuretic peptide” (priority 2013, dated 2021).
pEC50: −log10 of the molar value.

Target: T1, human GC-A (Homo sapiens, UniProt P16066)
T1 construct: expressed in transfected cells; host or cells: CHO cells
T1 sequence (P16066 33-1061): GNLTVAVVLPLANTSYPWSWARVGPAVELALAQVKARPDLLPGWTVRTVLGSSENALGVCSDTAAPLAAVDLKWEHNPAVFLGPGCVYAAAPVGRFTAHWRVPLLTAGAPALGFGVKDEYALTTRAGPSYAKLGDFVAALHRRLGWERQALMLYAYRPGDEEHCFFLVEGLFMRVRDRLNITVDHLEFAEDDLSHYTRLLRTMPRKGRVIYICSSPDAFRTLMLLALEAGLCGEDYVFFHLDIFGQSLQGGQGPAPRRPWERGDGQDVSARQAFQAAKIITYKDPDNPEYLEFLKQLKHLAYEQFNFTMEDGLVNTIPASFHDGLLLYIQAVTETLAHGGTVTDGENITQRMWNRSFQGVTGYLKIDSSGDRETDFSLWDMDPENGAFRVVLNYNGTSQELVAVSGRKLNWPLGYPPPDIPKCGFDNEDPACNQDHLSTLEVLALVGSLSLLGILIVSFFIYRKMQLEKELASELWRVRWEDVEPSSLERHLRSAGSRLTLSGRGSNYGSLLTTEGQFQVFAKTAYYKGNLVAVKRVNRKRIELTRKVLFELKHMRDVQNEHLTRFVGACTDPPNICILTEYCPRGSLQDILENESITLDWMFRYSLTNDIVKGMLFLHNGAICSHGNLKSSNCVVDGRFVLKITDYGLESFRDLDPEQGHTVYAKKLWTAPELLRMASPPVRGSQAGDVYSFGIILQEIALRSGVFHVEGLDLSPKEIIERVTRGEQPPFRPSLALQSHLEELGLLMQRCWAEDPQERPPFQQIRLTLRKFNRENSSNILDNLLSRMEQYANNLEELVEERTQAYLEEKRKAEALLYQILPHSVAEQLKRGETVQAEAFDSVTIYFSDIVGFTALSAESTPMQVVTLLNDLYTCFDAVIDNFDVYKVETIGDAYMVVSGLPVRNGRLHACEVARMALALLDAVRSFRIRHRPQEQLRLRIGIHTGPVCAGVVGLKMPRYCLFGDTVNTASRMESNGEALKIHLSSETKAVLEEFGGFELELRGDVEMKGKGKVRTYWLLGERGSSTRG
Assay: cGMP elevating activity in CHO/human GC-A cells (Test Example 1)
Assay type: cell-based
Method: The cGMP elevating activity of each modified peptide prepared in Example 2 was measured by the following method:
CHO/human GC-A cells, which are CHO cells constitutively expressing human GC-A, were suspended at 2×10^5 cells/ml in α-MEM, 10% FBS, and 1% penicillin-streptomycin, inoculated at 20 μl/well (4×10^3 cells/well) onto a 384-well plate (Corning, 3826), and cultured overnight in a CO2 incubator. On the next day, the medium was removed from this plate, and then, 1.6 mM IBMX/KRB buffer was added thereto at 10 μl/well. The mixture was stirred on a plate shaker and then incubated at room temperature for 10 minutes. […] The mixture was stirred on a plate shaker and then incubated for 15 minutes in a CO2 incubator. Thereafter, a lysis buffer (50 mM phosphate buffer, pH 7.0, and 1% Triton X-100) was added thereto at 5 μl/well. The cells were lysed by stirring for 10 minutes on a plate shaker. Subsequently, the cGMP levels in the cell lysates were measured by use of a cGMP kit (manufactured by Cisbio Bioassays). Specifically, to a 384-well plate (Greiner, 784076), 5 μl/well of a diluent attached to the kit, 5 μl/well of the cell lysate, 5 μl/well of cGMP-d2, and 5 μl/well of anti cGMP-Cryptate were added. The mixture was stirred on a plate shaker and then incubated overnight at 4° C. in the dark, followed by the measurement of homogeneous time-resolved fluorescence using RubyStar (manufactured by BMG LABTECH JAPAN Ltd.). The activity value (T/C) of the test substance at each concentration was calculated when the activity value of a well supplemented with only a solvent was defined as 0 and the activity value of a well supplemented with 1 nM ANP was defined as 1.

## CC[C@H](C)[C@@H]1NC(=O)[C@H](CCCNC(=N)N)NC(=O)[C@H](CC(=O)O)NC(=O)[C@H](CCSC)NC(=O)[C@H](CCCNC(=N)N)NC(=O)CNC(=O)CNC(=O)[C@H](Cc2ccccc2)NC(=O)[C@@H](NC(=O)[C@H](CO)NC(=O)[C@H](CO)NC(=O)[C@H](CCCNC(=N)N)NC(=O)[C@H](CCCNC(=N)N)NC(=O)[C@H](CC(C)C)NC(=O)[C@H](CO)NC(=O)CCOCCOCCOCCOCCOCCOCCOCCOCCOCCOCCOCCOCCNC(=O)CCOCCOCCOCCOCCOCCOCCOCCOCCOCCOCCOCCOCCNC(=O)[C@H](CC(=O)N[C@@H]2O[C@H](CO)[C@@H](O[C@@H]3O[C@H](CO)[C@@H](O[C@@H]4O[C@H](CO[C@H]5O[C@H](CO)[C@@H](O)[C@H](O)[C@@H]5O[C@@H]5O[C@H](CO)[C@@H](O[C@@H]6O[C@H](CO[C@]7(C(=O)O)C[C@H](O)[C@@H](NC(C)=O)[C@H]([C@H](O)[C@H](O)CO)O7)[C@H](O)[C@H](O)[C@H]6O)[C@H](O)[C@H]5NC(C)=O)[C@@H](O)[C@H](O[C@H]5O[C@H](CO)[C@@H](O)[C@H](O)[C@@H]5O[C@@H]5O[C@H](CO)[C@@H](O[C@@H]6O[C@H](CO[C@]7(C(=O)O)C[C@H](O)[C@@H](NC(C)=O)[C@H]([C@H](O)[C@H](O)CO)O7)[C@H](O)[C@H](O)[C@H]6O)[C@H](O)[C@H]5NC(C)=O)[C@@H]4O)[C@H](O)[C@H]3NC(C)=O)[C@H](O)[C@H]2NC(C)=O)NC(=O)CO[C@@H]2O[C@H](CO)[C@@H](O[C@@H]3O[C@H](CO)[C@@H](O[C@@H]4O[C@H](CO[C@H]5O[C@H](CO)[C@@H](O)[C@H](O)[C@@H]5O[C@@H]5O[C@H](CO)[C@@H](O[C@@H]6O[C@H](CO[C@]7(C(=O)O)C[C@H](O)[C@@H](NC(C)=O)[C@H]([C@H](O)[C@H](O)CO)O7)[C@H](O)[C@H](O)[C@H]6O)[C@H](O)[C@H]5NC(C)=O)[C@@H](O)[C@H](O[C@H]5O[C@H](CO)[C@@H](O)[C@H](O)[C@@H]5O[C@@H]5O[C@H](CO)[C@@H](O[C@@H]6O[C@H](CO[C@]7(C(=O)O)C[C@H](O)[C@@H](NC(C)=O)[C@H]([C@H](O)[C@H](O)CO)O7)[C@H](O)[C@H](O)[C@H]6O)[C@H](O)[C@H]5NC(C)=O)[C@@H]4O)[C@H](O)[C@H]3NC(C)=O)[C@H](O)[C@H]2NC(C)=O)CSSC[C@@H](C(=O)N[C@@H](CC(N)=O)C(=O)N[C@@H](CO)C(=O)N[C@@H](Cc2ccccc2)C(=O)N[C@@H](CCCNC(=N)N)C(=O)N[C@@H](Cc2ccc(O)cc2)C(=O)O)NC(=O)CNC(=O)[C@H](CC(C)C)NC(=O)CNC(=O)[C@H](CO)NC(=O)[C@H](CCC(N)=O)NC(=O)[C@H](C)NC(=O)CNC1=O [Compound 2-28, SG-(SG-)Asn-PEG(11)-PEG(11)-hANP(1-28)]
  pEC50: 9.51

## CC[C@H](C)[C@@H]1NC(=O)[C@H](CCCNC(=N)N)NC(=O)[C@H](CC(=O)O)NC(=O)[C@H](CCSC)NC(=O)[C@H](CCCNC(=N)N)NC(=O)CNC(=O)CNC(=O)[C@H](Cc2ccccc2)NC(=O)[C@@H](NC(=O)[C@H](CO)NC(=O)[C@H](CO)NC(=O)[C@H](CCCNC(=N)N)NC(=O)[C@H](CCCNC(=N)N)NC(=O)[C@H](CC(C)C)NC(=O)[C@H](CO)NC(=O)CNC(=O)CO[C@@H]2O[C@H](CO)[C@@H](O[C@@H]3O[C@H](CO)[C@@H](O[C@@H]4O[C@H](CO[C@H]5O[C@H](CO)[C@@H](O)[C@H](O)[C@@H]5O[C@@H]5O[C@H](CO)[C@@H](O[C@@H]6O[C@H](CO[C@]7(C(=O)O)C[C@H](O)[C@@H](NC(C)=O)[C@H]([C@H](O)[C@H](O)CO)O7)[C@H](O)[C@H](O)[C@H]6O)[C@H](O)[C@H]5NC(C)=O)[C@@H](O)[C@H](O[C@H]5O[C@H](CO)[C@@H](O)[C@H](O)[C@@H]5O[C@@H]5O[C@H](CO)[C@@H](O[C@@H]6O[C@H](CO[C@]7(C(=O)O)C[C@H](O)[C@@H](NC(C)=O)[C@H]([C@H](O)[C@H](O)CO)O7)[C@H](O)[C@H](O)[C@H]6O)[C@H](O)[C@H]5NC(C)=O)[C@@H]4O)[C@H](O)[C@H]3NC(C)=O)[C@H](O)[C@H]2O)CSSC[C@@H](C(=O)N[C@@H](CC(N)=O)C(=O)N[C@@H](CO)C(=O)N[C@@H](Cc2ccccc2)C(=O)N[C@@H](CCCNC(=N)N)C(=O)N[C@@H](Cc2ccc(O)cc2)C(=O)O)NC(=O)CNC(=O)[C@H](CC(C)C)NC(=O)CNC(=O)[C@H](CO)NC(=O)[C@H](CCC(N)=O)NC(=O)[C@H](C)NC(=O)CNC1=O [Compound 2-40, SG(Glc)-Gly-A-hANP(1-28)]
  pEC50: 10.30

## CC[C@H](C)[C@@H]1NC(=O)[C@H](CCCNC(=N)N)NC(=O)[C@H](CC(=O)O)NC(=O)[C@H](CCSC)NC(=O)[C@H](CCCNC(=N)N)NC(=O)CNC(=O)CNC(=O)[C@H](Cc2ccccc2)NC(=O)[C@@H](NC(=O)[C@H](CO)NC(=O)[C@H](CO)NC(=O)[C@H](CCCNC(=N)N)NC(=O)[C@H](CCCNC(=N)N)NC(=O)[C@H](CC(C)C)NC(=O)[C@H](CO)NC(=O)CNC(=O)[C@H](CO)NC(=O)CNC(=O)[C@H](CO)NC(=O)CNC(=O)[C@H](CO)NC(=O)[C@H](CC(=O)N[C@@H]2O[C@H](CO)[C@@H](O[C@@H]3O[C@H](CO)[C@@H](O[C@@H]4O[C@H](CO[C@H]5O[C@H](CO)[C@@H](O)[C@H](O)[C@@H]5O[C@@H]5O[C@H](CO)[C@@H](O[C@@H]6O[C@H](CO[C@]7(C(=O)O)C[C@H](O)[C@@H](NC(C)=O)[C@H]([C@H](O)[C@H](O)CO)O7)[C@H](O)[C@H](O)[C@H]6O)[C@H](O)[C@H]5NC(C)=O)[C@@H](O)[C@H](O[C@H]5O[C@H](CO)[C@@H](O)[C@H](O)[C@@H]5O[C@@H]5O[C@H](CO)[C@@H](O[C@@H]6O[C@H](CO[C@]7(C(=O)O)C[C@H](O)[C@@H](NC(C)=O)[C@H]([C@H](O)[C@H](O)CO)O7)[C@H](O)[C@H](O)[C@H]6O)[C@H](O)[C@H]5NC(C)=O)[C@@H]4O)[C@H](O)[C@H]3NC(C)=O)[C@H](O)[C@H]2NC(C)=O)NC(=O)CO[C@@H]2O[C@H](CO)[C@@H](O[C@@H]3O[C@H](CO)[C@@H](O[C@@H]4O[C@H](CO[C@H]5O[C@H](CO)[C@@H](O)[C@H](O)[C@@H]5O[C@@H]5O[C@H](CO)[C@@H](O[C@@H]6O[C@H](CO[C@]7(C(=O)O)C[C@H](O)[C@@H](NC(C)=O)[C@H]([C@H](O)[C@H](O)CO)O7)[C@H](O)[C@H](O)[C@H]6O)[C@H](O)[C@H]5NC(C)=O)[C@@H](O)[C@H](O[C@H]5O[C@H](CO)[C@@H](O)[C@H](O)[C@@H]5O[C@@H]5O[C@H](CO)[C@@H](O[C@@H]6O[C@H](CO[C@]7(C(=O)O)C[C@H](O)[C@@H](NC(C)=O)[C@H]([C@H](O)[C@H](O)CO)O7)[C@H](O)[C@H](O)[C@H]6O)[C@H](O)[C@H]5NC(C)=O)[C@@H]4O)[C@H](O)[C@H]3NC(C)=O)[C@H](O)[C@H]2NC(C)=O)CSSC[C@@H](C(=O)N[C@@H](CC(N)=O)C(=O)N[C@@H](CO)C(=O)N[C@@H](Cc2ccccc2)C(=O)N[C@@H](CCCNC(=N)N)C(=O)N[C@@H](Cc2ccc(O)cc2)C(=O)O)NC(=O)CNC(=O)[C@H](CC(C)C)NC(=O)CNC(=O)[C@H](CO)NC(=O)[C@H](CCC(N)=O)NC(=O)[C@H](C)NC(=O)CNC1=O [Compound 2-36, SG-(SG-)Asn-(Ser-Gly)3-hANP(1-28)]
  pEC50: 9.41
